Experiments:
M. circinelloides = settings: van Heeswijck et al., 1988; acid pH (3.2 or 4.5); cited from earlier work
[1] = tested on: Mucor circinelloides strain R7B; test: Screening of antibiotic sensitivity on YNB agar at pH 6.0; format: cell-based; settings: YNB agar pH 6.0, 4 days at 28° C.
Method: Spores of Mucor circinelloides strain R7B were plated on to YNB agar pH 6.0 supplemented with leucine (upper left plate in all panels) or the same medium supplemented with 50, 100 or 250 μg/ml of the antibiotic (geneticin, kanamycin, hygromycin B or neomycin) as indicated in each panel. After 4 days at 28° C., plates were examined and photographed.
However, the conditions used for the above screening—especially the acid pH used (3.2 or 4.5)—may result in the inactivation of the antibiotic. Therefore, we performed an initial screening of antibiotic sensitivity using pH 6.0. Under these conditions, M. circinelloides is sensitive to all four antibiotic tested.

pkaR expression = test: Northern blot analysis of pkaR expression during aerobic growth after dbcAMP addition; format: cell-based, M. circinelloides; settings: for Total Counts (pkaR mRNA, background subtracted): aerobic growth
Method: M. circinelloides syn. racemosus R7B (ATCC 90680), a leucine auxotrophic strain of ATCC1216b, was used as a recipient for transformation experiments and for expression studies. Cultures were grown at 28° C. in either YPG (Bartnicki-Garcia and Nickerson, 1962), YNB (Lasker and Borgia, 1980), Vogel's medium supplemented with 1.5 g glutamic acid per litre (Hoekstra, 1996) or SIV medium with 1.5 g glutamic acid per litre in place of L-aspargine (Eslava and Alvarez, 1996). Vogel's and SIV media were supplemented with 2 g casamino acids (Difco, Detroit, Mich., USA) per litre. All media were supplemented with 1 mg/L niacin amide and 1 mg/L thiamine chloride. When appropriate, 20 mg/L leucine was added to allow for the growth of strain R7B. For the analysis of pkaR expression, 5 mM dbcAMP (Sigma) was added to aerobic growing cultures during exponential growth. The BBL GasPak system (Becton Dickinson, Sparks, Md., USA) was used for anaerobic incubation of strains on solid medium. E. coli DH5α was used for DNA manipulations.
RNA isolation was carried out using a FastRNA kit (BIO101 Inc., CA, USA) and extraction with acid Phenol:chloroform (Sigma). For Northern blot analysis, total RNA was loaded onto formaldehyde containing agarose gel, subjected to electrophoresis, transferred to GeneScreen membrane (Du Pont) and hybridised as described (Arnau et al., 1996). Expression levels were meassured using a Cyclone Storage Phosphor System (Packard) and the OptiQuant image analysis software. A linear dynamic range of 5 orders of magnitude with only a 5% standard deviation is possible with the above apparatus. Dilution series of the RNA preparations (typically 20, 10 and 5 μg total RNA per sample) were used to estimate induction levels. Primer extension was carried out using a radioactively end-labelled primer; complementary to position 98-78 downstream of the pkaR ATG start codon. A sequence ladder was obtained using the same primer and pEUKA4-pkaR DNA as template using the Thermo Sequenase Radiolabeled Terminator Cycle Sequencing Kit (USB-Amersham). Probe labelling was performed using Ready-To-Go DNA Labelling Beads (Amersham Pharmacia Biotech). Unincorporated nucleotides were removed using a NICK column (Pharmacia).
In a complementary study, the expression of pkaR was followed during aerobic (filamentous) growth before and after the addition of dbcAMP. This cAMP analogue is membrane permeable and its addition results in PKA activation.

CCCCNC(=O)n1c(NC(=O)OC)nc2ccccc21 [benomyl]
Sensitivity of M. circinelloides to antibiotic as reported (M. circinelloides): insensitive

CC[C@H]1/C=C/C=C/C[C@@H](C)[C@H](O)[C@@](C)(O)C(=O)[C@@H](C)[C@H](O)[C@@H](C)C(=O)[C@@H](C)[C@H](O)[C@@H](C)/C=C/C(=O)O[C@@H]2[C@H](C)[C@H](CC1)O[C@]1(CC[C@H](C)[C@H](C[C@@H](C)O)O1)[C@H]2C [oligomycin]
Sensitivity of M. circinelloides to antibiotic as reported (M. circinelloides): insensitive

neomycin
Sensitivity of M. circinelloides to antibiotic as reported (M. circinelloides): insensitive

CN[C@H]1C[C@@H](N)[C@H](O)[C@@H](O[C@@H]2O[C@H](CO)[C@H](O)[C@@H]3OC4(O[C@H]23)O[C@H]([C@@H](N)CO)[C@H](O)[C@H](O)[C@H]4O)[C@@H]1O (some centres unmarked) [hygromycin B]
Growth of M. circinelloides on antibiotic-supplemented plates ([1]; 50 μg/ml antibiotic): tiny colonies
Growth of M. circinelloides on antibiotic-supplemented plates ([1]; 100 μg/ml antibiotic): no growth

CCCC(=O)Nc1ncnc2c1ncn2[C@@H]1O[C@@H]2COP(=O)(O)O[C@H]2[C@H]1OC(=O)CCC [dbcAMP]
Total Counts (pkaR mRNA, background subtracted) (pkaR expression; 15 min after addition of 5 mM dbcAMP): 951
Total Counts (pkaR mRNA, background subtracted) (pkaR expression; 30 min after addition of 5 mM dbcAMP): 1728
Total Counts (pkaR mRNA, background subtracted) (pkaR expression; 60 min after addition of 5 mM dbcAMP): 2235
Total Counts (pkaR mRNA, background subtracted) (pkaR expression; 120 min after addition of 5 mM dbcAMP): 2392
Total Counts (pkaR mRNA, background subtracted) (pkaR expression; 180 min after addition of 5 mM dbcAMP): 2966
Induction of pkaR expression compared to the level before dbcAMP addition (pkaR expression; after three hours): sevenfold
